Test results: the kinase profiling compilation of Christmann-Franck et al. (2016)
Values joined by “and” are separate entries in the source; they are usually repeats but may differ in a detail not shown here. Equal entries are not always repeated.

What was measured:
Test in all cases: KINOMEscan competition binding
Conditions in all cases: compound 10.0 µM
STK11 (human) = STK11 (human) (UniProt Q15831)
GAK (human) = GAK (human) (UniProt O14976)
MAPK7 (human) = MAPK7 (human) (UniProt Q13164)
WEE1 (human) = WEE1 (human) (UniProt P30291)
MAP4K2 (human) = MAP4K2 (human) (UniProt Q12851)
PIP4K2B (human) = PIP4K2B (human) (UniProt P78356)
NEK1 (human) = NEK1 (human) (UniProt Q96PY6)
CSF1R (human) = CSF1R (human) (UniProt P07333)
DCLK2 (human) = DCLK2 (human) (UniProt Q8N568)
CAMK2B (human) = CAMK2B (human) (UniProt Q13554)
PAK4 (human) = PAK4 (human) (UniProt O96013)
ULK1 (human) = ULK1 (human) (UniProt O75385)
MAP3K7 (human) = MAP3K7 (human) (UniProt O43318)
MTOR (human) = MTOR (human) (UniProt P42345)
TGFBR2 (human) = TGFBR2 (human) (UniProt P37173)
TTK (human) = TTK (human) (UniProt P33981)
MST1R (human) = MST1R (human) (UniProt Q04912)
BRSK1 (human) = BRSK1 (human) (UniProt Q8TDC3)
GSK3A (human) = GSK3A (human) (UniProt P49840)
Chain of GSK3A (human) (P49840 whole entry, looked up): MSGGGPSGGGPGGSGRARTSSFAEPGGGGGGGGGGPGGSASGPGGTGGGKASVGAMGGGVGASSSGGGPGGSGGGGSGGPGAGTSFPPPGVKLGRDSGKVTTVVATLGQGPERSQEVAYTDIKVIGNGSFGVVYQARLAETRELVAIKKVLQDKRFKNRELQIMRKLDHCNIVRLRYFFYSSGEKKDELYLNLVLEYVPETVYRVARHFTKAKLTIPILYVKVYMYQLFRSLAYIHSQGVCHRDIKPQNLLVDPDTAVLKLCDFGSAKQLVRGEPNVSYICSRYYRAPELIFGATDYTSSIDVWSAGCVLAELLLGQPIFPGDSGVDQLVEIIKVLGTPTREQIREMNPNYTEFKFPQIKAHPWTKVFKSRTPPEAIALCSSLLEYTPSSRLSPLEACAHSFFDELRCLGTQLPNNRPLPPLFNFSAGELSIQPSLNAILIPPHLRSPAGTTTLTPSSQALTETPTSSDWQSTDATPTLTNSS

CDK7 (human) = CDK7 (human) (UniProt P50613)
MAP3K6 (human) = MAP3K6 (human) (UniProt O95382)
[1] = tested on: KIT (human), P10721 [A829P]
[2] = target: JAK2 JH1 catalytic (human) (UniProt O60674)
Chain of JAK2 JH1 catalytic (human) (O60674 whole entry, looked up): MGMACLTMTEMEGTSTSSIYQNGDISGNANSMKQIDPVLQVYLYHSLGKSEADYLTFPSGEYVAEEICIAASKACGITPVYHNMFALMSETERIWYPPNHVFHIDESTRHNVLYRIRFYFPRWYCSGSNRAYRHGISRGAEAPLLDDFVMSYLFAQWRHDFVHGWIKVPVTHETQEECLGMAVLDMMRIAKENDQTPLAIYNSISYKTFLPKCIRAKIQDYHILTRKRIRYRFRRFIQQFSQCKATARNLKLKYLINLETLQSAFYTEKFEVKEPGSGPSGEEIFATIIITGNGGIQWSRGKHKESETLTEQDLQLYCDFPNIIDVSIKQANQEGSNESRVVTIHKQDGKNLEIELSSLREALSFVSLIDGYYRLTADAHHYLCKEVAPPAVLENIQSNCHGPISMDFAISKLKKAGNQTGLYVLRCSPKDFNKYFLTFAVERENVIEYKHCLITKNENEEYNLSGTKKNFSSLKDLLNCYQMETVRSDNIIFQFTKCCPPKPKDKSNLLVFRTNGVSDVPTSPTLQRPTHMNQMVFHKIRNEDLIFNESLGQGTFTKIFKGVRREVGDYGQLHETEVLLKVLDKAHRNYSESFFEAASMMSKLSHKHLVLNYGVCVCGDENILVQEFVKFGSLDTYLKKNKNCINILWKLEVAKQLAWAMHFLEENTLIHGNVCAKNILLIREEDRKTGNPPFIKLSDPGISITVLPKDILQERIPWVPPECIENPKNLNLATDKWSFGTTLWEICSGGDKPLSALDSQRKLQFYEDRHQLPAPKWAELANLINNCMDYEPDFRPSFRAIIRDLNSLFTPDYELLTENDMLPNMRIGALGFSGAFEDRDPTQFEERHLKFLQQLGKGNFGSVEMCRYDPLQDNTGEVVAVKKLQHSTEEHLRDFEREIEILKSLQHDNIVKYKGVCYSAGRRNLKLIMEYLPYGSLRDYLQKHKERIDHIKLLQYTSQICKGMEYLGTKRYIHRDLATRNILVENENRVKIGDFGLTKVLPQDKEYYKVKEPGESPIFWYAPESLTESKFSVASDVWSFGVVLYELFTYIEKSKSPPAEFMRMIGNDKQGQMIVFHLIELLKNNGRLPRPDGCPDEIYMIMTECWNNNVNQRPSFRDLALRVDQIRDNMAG

SIK3 (human) = SIK3 (human) (UniProt Q9Y2K2)
PDGFRB (human) = PDGFRB (human) (UniProt P09619)
AAK1 (human) = AAK1 (human) (UniProt Q2M2I8)
NEK5 (human) = NEK5 (human) (UniProt Q6P3R8)
PRKCQ (human) = PRKCQ (human) (UniProt Q04759)
DAPK2 (human) = DAPK2 (human) (UniProt Q9UIK4)
PIM2 (human) = PIM2 (human) (UniProt Q9P1W9)
Chain of PIM2 (human) (Q9P1W9 whole entry, looked up): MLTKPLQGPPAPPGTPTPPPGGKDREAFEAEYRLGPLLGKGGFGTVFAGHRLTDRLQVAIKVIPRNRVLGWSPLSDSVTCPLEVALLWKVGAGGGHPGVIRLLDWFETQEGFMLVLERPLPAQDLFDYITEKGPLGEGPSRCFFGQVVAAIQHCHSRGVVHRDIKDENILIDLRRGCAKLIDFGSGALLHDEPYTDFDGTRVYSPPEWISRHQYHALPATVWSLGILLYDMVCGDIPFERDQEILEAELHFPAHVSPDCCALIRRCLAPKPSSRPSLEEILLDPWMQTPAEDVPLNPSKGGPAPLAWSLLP

RPS6KB1 (human) = RPS6KB1 (human) (UniProt P23443)
Chain of RPS6KB1 (human) (P23443 whole entry, looked up): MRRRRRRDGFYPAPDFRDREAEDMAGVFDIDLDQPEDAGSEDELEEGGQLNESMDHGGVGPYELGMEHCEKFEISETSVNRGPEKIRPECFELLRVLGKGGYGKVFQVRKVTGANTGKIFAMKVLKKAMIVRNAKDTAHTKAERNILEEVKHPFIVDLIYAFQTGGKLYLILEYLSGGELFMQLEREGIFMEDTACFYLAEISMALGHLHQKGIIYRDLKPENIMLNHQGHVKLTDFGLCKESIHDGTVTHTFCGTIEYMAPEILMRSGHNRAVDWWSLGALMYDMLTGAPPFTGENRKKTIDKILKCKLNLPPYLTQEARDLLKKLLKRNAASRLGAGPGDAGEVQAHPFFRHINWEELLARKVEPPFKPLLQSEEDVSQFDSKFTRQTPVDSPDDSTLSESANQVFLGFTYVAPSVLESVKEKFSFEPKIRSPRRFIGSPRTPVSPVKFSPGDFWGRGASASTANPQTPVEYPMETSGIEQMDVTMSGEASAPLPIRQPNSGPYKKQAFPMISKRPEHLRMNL

TAOK1 (human) = TAOK1 (human) (UniProt Q7L7X3)
PRKACA (human) = PRKACA (human) (UniProt P17612)
MAP3K15 (human) = MAP3K15 (human) (UniProt Q6ZN16)
HIPK1 (human) = HIPK1 (human) (UniProt Q86Z02)
STK32A (human) = STK32A (human) (UniProt Q8WU08)
Chain of STK32A (human) (Q8WU08 whole entry, looked up): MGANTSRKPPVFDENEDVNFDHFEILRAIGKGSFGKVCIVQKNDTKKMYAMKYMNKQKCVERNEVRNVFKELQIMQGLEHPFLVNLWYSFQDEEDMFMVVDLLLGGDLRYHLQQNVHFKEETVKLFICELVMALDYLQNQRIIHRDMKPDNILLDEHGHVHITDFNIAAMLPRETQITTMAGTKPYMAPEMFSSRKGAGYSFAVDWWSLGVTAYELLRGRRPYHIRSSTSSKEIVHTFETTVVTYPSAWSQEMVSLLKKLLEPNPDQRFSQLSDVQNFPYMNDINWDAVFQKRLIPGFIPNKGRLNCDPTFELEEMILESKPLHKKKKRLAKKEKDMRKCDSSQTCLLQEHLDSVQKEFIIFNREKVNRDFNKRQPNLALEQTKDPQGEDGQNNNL

MAPK13 (human) = MAPK13 (human) (UniProt O15264)
CDC42BPG (human) = CDC42BPG (human) (UniProt Q6DT37)
Chain of CDC42BPG (human) (Q6DT37 whole entry, looked up): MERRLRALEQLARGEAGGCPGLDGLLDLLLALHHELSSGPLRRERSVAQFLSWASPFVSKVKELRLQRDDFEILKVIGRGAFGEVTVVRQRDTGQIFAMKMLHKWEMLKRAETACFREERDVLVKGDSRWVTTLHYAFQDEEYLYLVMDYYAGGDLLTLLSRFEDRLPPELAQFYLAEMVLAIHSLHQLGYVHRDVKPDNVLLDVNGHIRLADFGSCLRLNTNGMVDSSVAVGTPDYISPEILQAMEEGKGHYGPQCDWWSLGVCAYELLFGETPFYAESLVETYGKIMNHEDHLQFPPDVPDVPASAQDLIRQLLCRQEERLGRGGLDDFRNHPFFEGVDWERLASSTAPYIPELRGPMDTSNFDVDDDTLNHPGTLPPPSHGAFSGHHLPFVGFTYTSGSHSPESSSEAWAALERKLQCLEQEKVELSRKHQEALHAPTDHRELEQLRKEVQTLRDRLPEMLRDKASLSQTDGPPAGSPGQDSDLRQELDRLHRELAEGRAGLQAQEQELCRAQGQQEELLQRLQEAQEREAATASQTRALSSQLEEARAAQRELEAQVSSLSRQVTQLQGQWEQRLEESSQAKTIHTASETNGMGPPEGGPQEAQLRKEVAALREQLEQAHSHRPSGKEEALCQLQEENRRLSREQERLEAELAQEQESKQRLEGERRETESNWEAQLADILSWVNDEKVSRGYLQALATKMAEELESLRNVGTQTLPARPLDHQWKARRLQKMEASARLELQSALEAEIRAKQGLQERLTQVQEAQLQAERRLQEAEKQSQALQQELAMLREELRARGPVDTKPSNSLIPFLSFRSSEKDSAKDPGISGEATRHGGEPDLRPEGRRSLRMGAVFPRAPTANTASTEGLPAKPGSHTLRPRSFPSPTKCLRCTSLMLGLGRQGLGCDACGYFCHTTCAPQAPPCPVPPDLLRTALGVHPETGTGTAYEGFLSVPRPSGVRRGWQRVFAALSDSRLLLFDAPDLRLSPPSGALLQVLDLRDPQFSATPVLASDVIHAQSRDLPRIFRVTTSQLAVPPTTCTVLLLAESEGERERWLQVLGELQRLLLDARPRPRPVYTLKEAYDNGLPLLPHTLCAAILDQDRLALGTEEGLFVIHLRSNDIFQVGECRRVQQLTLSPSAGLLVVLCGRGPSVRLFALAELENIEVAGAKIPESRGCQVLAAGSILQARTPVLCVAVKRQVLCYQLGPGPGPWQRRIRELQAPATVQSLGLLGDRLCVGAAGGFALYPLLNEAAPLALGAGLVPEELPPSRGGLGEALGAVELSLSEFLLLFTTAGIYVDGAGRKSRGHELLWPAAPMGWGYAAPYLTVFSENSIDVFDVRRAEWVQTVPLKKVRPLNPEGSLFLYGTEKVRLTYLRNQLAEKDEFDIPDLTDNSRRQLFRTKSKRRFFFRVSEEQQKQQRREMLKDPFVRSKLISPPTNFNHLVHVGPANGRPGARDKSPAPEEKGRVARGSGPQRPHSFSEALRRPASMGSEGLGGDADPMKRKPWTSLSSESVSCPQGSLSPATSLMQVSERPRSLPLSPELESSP

MAPK4 (human) = MAPK4 (human) (UniProt P31152)
CSNK1G3 (human) = CSNK1G3 (human) (UniProt Q9Y6M4)
Chain of CSNK1G3 (human) (Q9Y6M4 whole entry, looked up): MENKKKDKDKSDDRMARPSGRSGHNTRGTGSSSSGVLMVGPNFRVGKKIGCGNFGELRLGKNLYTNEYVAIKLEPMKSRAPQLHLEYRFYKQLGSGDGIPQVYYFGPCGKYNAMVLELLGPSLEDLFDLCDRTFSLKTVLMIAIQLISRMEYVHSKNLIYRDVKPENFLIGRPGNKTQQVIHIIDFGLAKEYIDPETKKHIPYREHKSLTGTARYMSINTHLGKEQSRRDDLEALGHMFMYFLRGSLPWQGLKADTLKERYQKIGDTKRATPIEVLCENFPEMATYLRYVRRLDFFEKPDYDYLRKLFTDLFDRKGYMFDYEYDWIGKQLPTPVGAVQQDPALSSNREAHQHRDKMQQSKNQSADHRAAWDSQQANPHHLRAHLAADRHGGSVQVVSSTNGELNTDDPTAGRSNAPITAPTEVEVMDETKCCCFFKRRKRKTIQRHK

SMILES	kinase still bound, per cent of control (STK11 (human)) [%]	kinase still bound, per cent of control (GAK (human)) [%]	kinase still bound, per cent of control (MAPK7 (human)) [%]	kinase still bound, per cent of control (WEE1 (human)) [%]	kinase still bound, per cent of control (MAP4K2 (human)) [%]	kinase still bound, per cent of control (PIP4K2B (human)) [%]	kinase still bound, per cent of control (NEK1 (human)) [%]	kinase still bound, per cent of control (CSF1R (human))	kinase still bound, per cent of control (DCLK2 (human)) [%]	kinase still bound, per cent of control (CAMK2B (human)) [%]	kinase still bound, per cent of control (PAK4 (human)) [%]	kinase still bound, per cent of control (ULK1 (human)) [%]	kinase still bound, per cent of control (MAP3K7 (human)) [%]	kinase still bound, per cent of control (MTOR (human)) [%]	kinase still bound, per cent of control (TGFBR2 (human)) [%]	kinase still bound, per cent of control (TTK (human)) [%]	kinase still bound, per cent of control (MST1R (human)) [%]	kinase still bound, per cent of control (BRSK1 (human)) [%]	kinase still bound, per cent of control (GSK3A (human)) [%]	kinase still bound, per cent of control (CDK7 (human)) [%]	further results
COc1cc2ncnc(Nc3cccc(Cl)c3)c2cc1OC	86	0	100	93	36	97	77	72% and 91%	88	95	84	75	39	83	91	61	100	37	84	26	kinase still bound, per cent of control (MAP3K6 (human)): 43%; kinase still bound, per cent of control [1]: 27%; kinase still bound, per cent of control [2]: 46%; kinase still bound, per cent of control (SIK3 (human)): 53%; kinase still bound, per cent of control (PDGFRB (human)): 30%; kinase still bound, per cent of control (AAK1 (human)): 18%; kinase still bound, per cent of control (NEK5 (human)): 93%; kinase still bound, per cent of control (PRKCQ (human)): 100%; kinase still bound, per cent of control (DAPK2 (human)): 60%; kinase still bound, per cent of control (PIM2 (human)): 74%; kinase still bound, per cent of control (RPS6KB1 (human)): 63%; kinase still bound, per cent of control (TAOK1 (human)): 38%; kinase still bound, per cent of control (PRKACA (human)): 94%; kinase still bound, per cent of control (MAP3K15 (human)): 34%; kinase still bound, per cent of control (HIPK1 (human)): 48%; kinase still bound, per cent of control (STK32A (human)): 63%; kinase still bound, per cent of control (MAPK13 (human)): 100%; kinase still bound, per cent of control (CDC42BPG (human)): 56%; kinase still bound, per cent of control (MAPK4 (human)): 16%; kinase still bound, per cent of control (CSNK1G3 (human)): 100%
COc1cc2c(Nc3ccc(NC(=O)c4ccccc4)cc3)ncnc2cc1OCCCN1CCOCC1	100	60	89	100	39	100	81	16%	100	78	100	48	49	70	82	40	3.9	79	100	6.5	kinase still bound, per cent of control (MAP3K6 (human)): 100%; kinase still bound, per cent of control [1]: 59%; kinase still bound, per cent of control [2]: 72%; kinase still bound, per cent of control (SIK3 (human)): 100%; kinase still bound, per cent of control (PDGFRB (human)): 1.1%; kinase still bound, per cent of control (AAK1 (human)): 94%; kinase still bound, per cent of control (NEK5 (human)): 100%; kinase still bound, per cent of control (PRKCQ (human)): 100%; kinase still bound, per cent of control (DAPK2 (human)): 90%; kinase still bound, per cent of control (PIM2 (human)): 100%; kinase still bound, per cent of control (RPS6KB1 (human)): 7.4%; kinase still bound, per cent of control (TAOK1 (human)): 95%; kinase still bound, per cent of control (PRKACA (human)): 100%; kinase still bound, per cent of control (MAP3K15 (human)): 100%; kinase still bound, per cent of control (HIPK1 (human)): 14%; kinase still bound, per cent of control (STK32A (human)): 96%; kinase still bound, per cent of control (MAPK13 (human)): 40%; kinase still bound, per cent of control (CDC42BPG (human)): 72%; kinase still bound, per cent of control (MAPK4 (human)): 100%; kinase still bound, per cent of control (CSNK1G3 (human)): 100%
N#Cc1cc(-c2ccnc(Nc3ccc(-n4cnc(-c5cccnc5)n4)cc3)n2)cc(N2CCOCC2)c1	11	22	100	82	10	6.9	57	14%	100	37	31	37	15	100	100	73	100	85	3.5	1.2	kinase still bound, per cent of control (MAP3K6 (human)): 88%; kinase still bound, per cent of control [1]: 51%; kinase still bound, per cent of control [2]: 0%; kinase still bound, per cent of control (SIK3 (human)): 100%; kinase still bound, per cent of control (PDGFRB (human)): 8.2%; kinase still bound, per cent of control (AAK1 (human)): 5.4%; kinase still bound, per cent of control (NEK5 (human)): 1.4%; kinase still bound, per cent of control (PRKCQ (human)): 100%; kinase still bound, per cent of control (DAPK2 (human)): 96%; kinase still bound, per cent of control (PIM2 (human)): 100%; kinase still bound, per cent of control (RPS6KB1 (human)): 52%; kinase still bound, per cent of control (TAOK1 (human)): 20%; kinase still bound, per cent of control (PRKACA (human)): 89%; kinase still bound, per cent of control (MAP3K15 (human)): 66%; kinase still bound, per cent of control (HIPK1 (human)): 2.2%; kinase still bound, per cent of control (STK32A (human)): 100%; kinase still bound, per cent of control (MAPK13 (human)): 61%; kinase still bound, per cent of control (CDC42BPG (human)): 63%; kinase still bound, per cent of control (MAPK4 (human)): 5%; kinase still bound, per cent of control (CSNK1G3 (human)): 100%
